Where two headings read alike, the source gives them in different places.
What was measured:
[1] = target: Human CDK7/CycH/MAT1 (Homo sapiens (Human), UniProt P50613); test: Radiometric protein kinase assay (33PanQinase Activity Assay), CDK7; format: biochemical; conditions: ATP 3 μM
Method: Additionally for the CDK7 assay: • Human CDK7/CycH/MAT1 (ProQinase, 0366-0360-4—Lot 2). • RBER-CHKtide (ProQinase, 0581-0000-5—Lot 106).
(§1) A radiometric protein kinase assay (^33PanQinase® Activity Assay) was used for measuring the kinase activity of the two protein kinases (CDK12/CDK7). All kinase assays were performed in 96-well FlashPlates™ from PerkinElmer (Boston, MA, USA) in a 50 μL reaction volume.
(§2) The reaction cocktail was pipetted in four steps in the following order: • 20 μL of assay buffer (standard buffer) • 5 μL of ATP solution (in H2O) • 5 μL of test compound (in 10% DMSO) • 10 μL of substrate/10 μL of enzyme solution (premixed)
For the CDK7 assay, a reaction mixture (50 μL) containing the following components was prepared: • 70 mM HEPES-NaOH (pH 7.5); • sodium orthovanadate (3 μM); • PEG-20000 (50 μg/mL); • DTT (1.2 mM); • MgCl2 (3 mM); • MnCl2 (3 mM); • purified human CDK7/CycH/MAT1 (3.3 nM—Lot 02); • RBER-CHKtide substrate (40 μg/mL—Lot 106); • ATP (3 μM); • [γ-33P]-ATP (approx. 8×10^5 cpm per well); and • test compound at the appropriate concentration such that the final concentration of DMSO was […].
(§3) The reaction mixture was incubated at 30° C. for 60 min and then stopped by the addition of 2% (v/v) H3PO4. Plates were aspirated and washed two times with 200 μL 0.9% (w/v) NaCl. Incorporation of ^33Pi was determined with a microplate scintillation count (Microbeta, Wallac).
The residual activities for each concentration and the compound IC50 values were calculated using Quattro Workflow V3.1.1 (Quattro Research GmbH, Munich, Germany). The fitting model for the IC50 determinations was “Sigmoidal response (variable slope)” with parameters “top” fixed at 100% and “bottom” at 0%. The fitting method used was a least-squares fit.

[2] = tested on: A673 cells; test: Cytotoxicity in A673 cells (Cell Titer Glo viability); format: cell-based; conditions: for Ratio of Biochemical Potency:Cellular Potency: CDK12 IC50 / A673 IC50; for IC50: Homo sapiens
Method: Cells were plated in 96-well plates at a density of […] viable cells per well in 200 μL fully supplemented growth medium (DMEM+10% heat inactivated foetal bovine serum) and incubated for 24 hours in standard tissue culture conditions. Compounds, including MLN4924, were solubilised in DMSO and then diluted in fully supplemented growth medium at 2× their final assay concentration such that the final DMSO concentration was 0.1%. Growth medium in the assay plates was replaced with 50 μL of growth medium containing 2×MLN4924 (final assay concentration: 30 nM, where tested) or vehicle only and 50 μL of growth medium containing a 2× compound concentration series or vehicle only such that each compound was at 1× final assay concentration in 100 μL.
Cells were then incubated for 72 hours in standard tissue culture conditions before viability was assessed using 50 μL Cell Titer Glo reagent (Promega) per well and luminescence measured on an EnVision plate reader. Data were normalised to vehicle control (100%) and cells treated with 0.1% Triton x-100 for 1 hour before viability measurement (0%; full cell kill). […] Viability curves generated in the presence of MLN4924 were normalised and fixed to controls treated with MLN4924.

[3] = target: Human CDK12 wt/CycK (Homo sapiens (Human), UniProt Q9NYV4); test: Radiometric protein kinase assay (33PanQinase Activity Assay), CDK12; format: biochemical; conditions: for CDK7/CDK12: ratio of CDK7 IC50 to CDK12 IC50, greater than 1 indicates selectivity for CDK12
Method: as §1, §2, §3
The fitting method used was a least-squares fit.

[4] = A673, read-out: Cellular Potency IC50 (nM) (in A673 cells)
[5] = A673 cells, 72 hours, read-out: A673 IC50
[6] = ATP 0.3 μM, read-out: CDK12 IC50
[7] = read-out: CKD12 Biochemical Potency IC50

Chain of Human CDK7/CycH/MAT1 (P50613 whole entry): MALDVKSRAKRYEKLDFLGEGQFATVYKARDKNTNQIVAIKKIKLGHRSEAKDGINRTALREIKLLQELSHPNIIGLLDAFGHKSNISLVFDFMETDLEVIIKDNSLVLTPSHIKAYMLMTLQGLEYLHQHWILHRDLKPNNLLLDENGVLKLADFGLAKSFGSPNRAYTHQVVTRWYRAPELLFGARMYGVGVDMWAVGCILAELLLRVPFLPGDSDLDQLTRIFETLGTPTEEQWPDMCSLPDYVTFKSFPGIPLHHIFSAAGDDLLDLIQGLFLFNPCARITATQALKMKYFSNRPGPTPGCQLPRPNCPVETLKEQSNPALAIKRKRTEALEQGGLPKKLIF
Chain of Human CDK7/CycH/MAT1 (P51946 whole entry partner): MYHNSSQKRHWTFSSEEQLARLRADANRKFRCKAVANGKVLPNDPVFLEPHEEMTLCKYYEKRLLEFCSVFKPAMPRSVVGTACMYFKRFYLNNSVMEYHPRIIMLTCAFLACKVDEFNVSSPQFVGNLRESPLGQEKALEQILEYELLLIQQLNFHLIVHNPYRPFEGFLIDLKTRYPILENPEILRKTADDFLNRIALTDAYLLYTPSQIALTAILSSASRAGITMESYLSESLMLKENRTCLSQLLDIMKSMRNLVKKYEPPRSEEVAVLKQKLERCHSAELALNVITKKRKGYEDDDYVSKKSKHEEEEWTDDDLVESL
Chain of Human CDK7/CycH/MAT1 (P51948 whole entry partner): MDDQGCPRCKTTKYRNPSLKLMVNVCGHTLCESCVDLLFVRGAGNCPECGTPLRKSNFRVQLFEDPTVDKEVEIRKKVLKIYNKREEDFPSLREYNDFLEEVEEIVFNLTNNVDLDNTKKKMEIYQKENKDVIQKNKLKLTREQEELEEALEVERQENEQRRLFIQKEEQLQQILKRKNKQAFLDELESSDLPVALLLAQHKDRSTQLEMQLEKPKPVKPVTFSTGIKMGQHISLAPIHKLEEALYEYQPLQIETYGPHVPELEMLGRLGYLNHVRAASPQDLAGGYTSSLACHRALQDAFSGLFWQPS
Chain of Human CDK12 wt/CycK (Q9NYV4 whole entry): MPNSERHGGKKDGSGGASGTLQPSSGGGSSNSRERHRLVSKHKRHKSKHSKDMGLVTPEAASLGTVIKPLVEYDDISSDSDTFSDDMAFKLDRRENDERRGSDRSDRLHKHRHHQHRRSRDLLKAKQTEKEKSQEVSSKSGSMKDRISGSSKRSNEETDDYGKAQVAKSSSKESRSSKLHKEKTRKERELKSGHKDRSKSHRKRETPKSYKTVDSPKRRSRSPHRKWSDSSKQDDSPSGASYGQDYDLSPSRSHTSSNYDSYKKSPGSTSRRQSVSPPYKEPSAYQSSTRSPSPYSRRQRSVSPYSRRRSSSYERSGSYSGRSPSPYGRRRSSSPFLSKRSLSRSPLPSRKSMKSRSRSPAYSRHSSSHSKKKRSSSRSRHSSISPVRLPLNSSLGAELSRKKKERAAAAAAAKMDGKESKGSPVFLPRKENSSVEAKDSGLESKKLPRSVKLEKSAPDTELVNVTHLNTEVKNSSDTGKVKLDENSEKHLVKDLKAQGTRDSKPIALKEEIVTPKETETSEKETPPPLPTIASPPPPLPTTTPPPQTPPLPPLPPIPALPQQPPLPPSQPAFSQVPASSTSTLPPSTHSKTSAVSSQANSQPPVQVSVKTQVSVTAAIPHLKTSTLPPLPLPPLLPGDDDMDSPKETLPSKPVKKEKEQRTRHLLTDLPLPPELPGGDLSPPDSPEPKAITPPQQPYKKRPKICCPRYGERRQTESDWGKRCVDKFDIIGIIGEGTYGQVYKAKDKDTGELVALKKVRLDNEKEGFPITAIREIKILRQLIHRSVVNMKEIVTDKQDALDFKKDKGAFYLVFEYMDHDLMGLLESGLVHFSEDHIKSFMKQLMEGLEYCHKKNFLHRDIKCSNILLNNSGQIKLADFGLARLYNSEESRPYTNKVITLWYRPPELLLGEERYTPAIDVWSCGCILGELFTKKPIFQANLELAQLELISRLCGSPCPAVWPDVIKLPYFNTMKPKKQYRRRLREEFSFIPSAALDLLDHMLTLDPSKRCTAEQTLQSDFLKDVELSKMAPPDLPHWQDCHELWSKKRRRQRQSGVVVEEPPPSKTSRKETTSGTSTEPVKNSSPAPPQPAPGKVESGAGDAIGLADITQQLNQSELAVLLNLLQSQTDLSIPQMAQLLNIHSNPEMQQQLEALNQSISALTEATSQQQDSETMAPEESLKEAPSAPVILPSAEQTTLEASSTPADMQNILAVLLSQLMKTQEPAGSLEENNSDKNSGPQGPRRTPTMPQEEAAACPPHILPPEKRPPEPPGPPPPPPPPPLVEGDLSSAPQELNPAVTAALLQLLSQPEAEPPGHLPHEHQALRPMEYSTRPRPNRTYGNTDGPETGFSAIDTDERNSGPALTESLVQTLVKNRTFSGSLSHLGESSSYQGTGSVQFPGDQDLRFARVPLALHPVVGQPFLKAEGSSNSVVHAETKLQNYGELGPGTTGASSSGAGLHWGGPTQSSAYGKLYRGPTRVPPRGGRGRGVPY
Chain of Human CDK12 wt/CycK (O75909 whole entry partner): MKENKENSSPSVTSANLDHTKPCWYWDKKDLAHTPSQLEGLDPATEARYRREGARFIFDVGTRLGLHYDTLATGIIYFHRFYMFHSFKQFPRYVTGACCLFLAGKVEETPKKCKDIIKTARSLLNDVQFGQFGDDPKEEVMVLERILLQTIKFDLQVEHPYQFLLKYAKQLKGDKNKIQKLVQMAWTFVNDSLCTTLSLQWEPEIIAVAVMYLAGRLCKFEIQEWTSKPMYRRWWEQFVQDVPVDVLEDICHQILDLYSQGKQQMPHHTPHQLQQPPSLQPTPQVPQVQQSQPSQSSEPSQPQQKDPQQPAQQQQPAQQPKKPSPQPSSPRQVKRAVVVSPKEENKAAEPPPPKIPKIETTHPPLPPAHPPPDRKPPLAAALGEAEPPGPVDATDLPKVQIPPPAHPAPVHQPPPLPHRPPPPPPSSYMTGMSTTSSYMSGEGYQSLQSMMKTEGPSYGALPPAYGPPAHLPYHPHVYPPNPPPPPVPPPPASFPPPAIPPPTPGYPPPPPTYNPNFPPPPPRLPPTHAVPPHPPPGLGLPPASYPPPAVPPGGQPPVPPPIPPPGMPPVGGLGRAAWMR

SMILES	IC50 [1]	Ratio of Biochemical Potency:Cellular Potency [2]	IC50 [2, 4]	IC50 [2, 5]	IC50 [3, 6]	CDK7/CDK12 [3]	IC50 [3, 7]
CC(C)c1cnn2c(NCc3ccc(-c4ccccn4)cc3)cc(NC[C@H]3CCNC[C@@H]3O)nc12 [PPA-001, (3R,4R)-4-(((3-isopropyl-7-((4-(pyridin-2-yl)benzyl)amino)pyrazolo[1,5-a]pyrimidin-5-yl)amino)methyl)piperidin-3-ol]	162 nM	21.79	2.8 nM	2.8 nM	61 nM	2.7	61 nM
CC(C)c1cnn2c(NCc3ccc(-c4ccncc4)cc3)cc(NC[C@H]3CCNC[C@@H]3O)nc12 [PPA-002, (3R,4R)-4-(((3-isopropyl-7-((4-(pyridin-4-yl)benzyl)amino)pyrazolo[1,5-a]pyrimidin-5-yl)amino)methyl)piperidin-3-ol]	79 nM	0.27	127 nM	127 nM	34 nM	2.3	34 nM
CC(C)c1cnn2c(NCc3ccc(-c4cccnc4)cc3)cc(NC[C@H]3CCNC[C@@H]3O)nc12 [PPA-003, (3R,4R)-4-(((3-isopropyl-7-((4-(pyridin-3-yl)benzyl)amino)pyrazolo[1,5-a]pyrimidin-5-yl)amino)methyl)piperidin-3-ol]	76 nM	2.90	16.2 nM	16.2 nM	47 nM	1.6	47 nM
CC(C)c1cnn2c(NCc3ccc(-c4ncccn4)cc3)cc(NC[C@H]3CCNC[C@@H]3O)nc12 [PPA-007]	112 nM	30.00	1.7 nM	1.7 nM	51 nM	2.2	51 nM
CC(C)c1cnn2c(NCc3ccc(-c4ccncn4)cc3)cc(NC[C@H]3CCNC[C@@H]3O)nc12 [PPA-008]	154 nM	1.63	32 nM	32 nM	52 nM	3.0	52 nM
N#Cc1cnn2c(NCc3ccc(-c4ccccn4)cc3)cc(NC[C@H]3CCNC[C@@H]3O)nc12 [PPA-010]	340 nM	4.50	8 nM	8 nM	36 nM	9.4	36 nM
Cc1cc(CNc2cc(NC[C@H]3CCNC[C@@H]3O)nc3c(C(C)C)cnn23)ccc1-c1ccccn1 [PPA-011]	153 nM	2.32	69 nM	69 nM	160 nM	1.0	160 nM
Cc1cccnc1-c1ccc(CNc2cc(NC[C@H]3CCNC[C@@H]3O)nc3c(C(C)C)cnn23)cc1 [PPA-012]	165 nM	13.33	14.1 nM	14.1 nM	188 nM	0.9	188 nM
COc1cccnc1-c1ccc(CNc2cc(NC[C@H]3CCNC[C@@H]3O)nc3c(C(C)C)cnn23)cc1 [PPA-013]	114 nM	40.45	2.2 nM	2.2 nM	89 nM	1.3	89 nM
CC(C)c1cnn2c(NCc3ccc(-c4ncccc4F)cc3)cc(NC[C@H]3CCNC[C@@H]3O)nc12 [PPA-014]	72 nM	11.56	6.4 nM	6.4 nM	74 nM	1.0	74 nM
COc1cc(CNc2cc(NC[C@H]3CCNC[C@@H]3O)nc3c(C4CC4)cnn23)ccc1-c1ccccn1 [PPA-015]	445 nM	1.31	179 nM	179 nM	235 nM	1.9	235 nM
O[C@H]1CNCC[C@@H]1CNc1cc(NCc2ccc(-c3ccccn3)cc2)n2ncc(Cl)c2n1 [PPA-016]	94 nM	110.00	0.2 nM	0.2 nM	22 nM	4.3	22 nM
O[C@H]1CNCC[C@@H]1CNc1cc(NCc2ccc(-n3cccc3)cc2)n2ncc(C3CC3)c2n1 [PPA-017]	337 nM	63.89	1.8 nM	1.8 nM	115 nM	2.9	115 nM
O[C@H]1CNCC[C@@H]1CNc1cc(NCc2ccc(-c3ccc(F)cn3)cc2)n2ncc(C3CC3)c2n1 [PPA-019]	224 nM	1.34	52.4 nM	52.4 nM	70 nM	3.2	70 nM
O[C@H]1CNCC[C@@H]1CNc1cc(NCc2ccc(-c3ccccn3)cn2)n2ncc(C3CC3)c2n1 [PPA-021]	393 nM	9.20	7.5 nM	7.5 nM	69 nM	5.7	69 nM
O[C@H]1CNCC[C@@H]1CNc1cc(NCc2cc(F)c(-c3ccccn3)cn2)n2ncc(C3CC3)c2n1 [PPA-022]	130 nM	48.00	1.5 nM	1.5 nM	72 nM	1.8	72 nM
Cc1nccn1-c1ccc(CNc2cc(NC[C@H]3CCNC[C@@H]3O)nc3c(C4CC4)cnn23)cc1 [PPA-023]	113 nM	<0.47	> 500 nM	> 500 nM	236 nM	0.5	236 nM
Cn1cc(-c2ccccn2)nc1CNc1cc(NC[C@H]2CCNC[C@@H]2O)nc2c(C3CC3)cnn12 [PPA-024]	17 nM	0.06	96.4 nM	96.4 nM	6 nM	2.8	6 nM
O[C@H]1CNCC[C@@H]1CNc1cc(NCc2cn(-c3ccccn3)cn2)n2ncc(C3CC3)c2n1 [PPA-025]	587 nM	13.22	5.9 nM	5.9 nM	78 nM	7.5	78 nM
O[C@H]1CNCC[C@@H]1CNc1cc(NCc2ccc(-c3ccccc3)nc2)n2ncc(C3CC3)c2n1 [PPA-026]	164 nM	3.57	12.6 nM	12.6 nM	45 nM	3.6	45 nM
COc1cccnc1-c1ccc(CNc2cc(NC[C@H]3CCNC[C@@H]3O)nc3c(C4CC4)cnn23)cc1 [PPA-027]	300 nM	74.09	2.2 nM	2.2 nM	163 nM	1.8	163 nM
CS(=O)(=O)N1CCC(CNc2cc(NCc3ccc(-c4ccccn4)cc3)n3ncc(C4CC4)c3n2)CC1 [PPA-056]	–	–	> 100 nM	> 100 nM	–	–	–
CC1(CNc2cc(NCc3ccc(-c4ccccn4)cc3)n3ncc(C4CC4)c3n2)CCNCC1 [PPA-063]	–	–	5.9 nM	5.9 nM	–	–	–

— patent US20240383900A1, “SUBSTITUTED PYRAZOLO [1,5-A]PYRIMIDINE-7-AMINE COMPOUNDS AS CDK INHIBITORS AND THEIR THERAPEUTIC USE” (Carrick Therapeutics Limited, priority 2021, published 2024)
